Tested on: spontaneously contracting 3D cultured CMs
Assay: Calcium transient and spontaneous beating rate of dissociated, un-paced CMs in response to isoproterenol
Type: cell-based, human
Description: To immobilize cells for proper calcium transient acquisition, glass coverslips (21 mm, No. 1, Fisher Scientific) were coated with PDMS using a WS-400-6NPP spin coater (Laurell Technologies Corporation). Briefly, SLYGARD 184 silicone elastomer curing agent was mixed with SLYGARD 184 elastomer base (Dow Corning Corporation) at a ratio of 1:10, applied on the glass coverslips and evenly spin coated to obtain PDMS coated coverslips. These were dried at 60° C. for several hours, sterilized using 70% ethanol, and further dried under sterile conditions for at least 24 h. In order for successful single CM attachment, 1× fibronectin in ice cold ultrapure water was applied on PDMS coated coverslips and incubated for at least one hour at room temperature.
Day 14 2D monolayers and 3D tissues were dissociated using 0.25% trypsin (EDTA) at 37° C. for 5 and 8 min, respectively. Cells were singularized by pipetting, added to RPMI20 media49, and centrifuged for 5 min at 200 g. Singularized cells were resuspended in RPMI20+5 μM ROCK inhibitor and transferred onto fibronectin coated PDMS glass coverslips. Cells were incubated for 48 h to ensure uniform cell attachment. Media was then switched to RPMI/B27 and cells maintained for 3 to 5 days. CM calcium transient recordings were obtained using an IonOptix Myocyte Calcium and Contractility Recording System. Samples were incubated in 5 μM Fura-2AM dye (Molecular Probes) in 37° C. warm Tyrode's solution (1.8 mM CaCl2, 5 mM glucose, 5 mM HEPES, 1 mM MgCl2, 5.4 mM KCl, 135 mM NaCl, and 0.33 mM NaH2PO4, pH 7.4) for 30 mM CMs were paced at frequencies from 0.5 to 2.0 Hz (0.5 Hz increments) and stimulated at 30 V. Calcium transient duration at 50% and 80% time to baseline was recorded. In addition to responses to outside electrical stimuli, response to 0.5 μM isoproterenol was studied on un-paced CMs.

[1] = 0.5 μM isoproterenol, spontaneously contracting 3D cultured CMs, vs pre-isoproterenol, n=3, P<0.05

With CC(C)NCC(O)c1ccc(O)c(O)c1 (stereo not shown) [isoproterenol] the “calcium transient time to baseline 50%” value [1] was “significantly shortened”, the “calcium transient time to baseline 80%” value [1] was “significantly shortened” and the “spontaneous beating rate (post isoproterenol)” value (0.5 μM isoproterenol, un-paced day 14 3D cultured CMs, pre-isoproterenol 33 beats per min) was 60 beats per min. For the same compound, the “spontaneous beating rate (change in words)” value (spontaneously contracting 3D cultured CMs, response to isoproterenol) was “increased”.

— patent US12448605B2, “Encapsulation and cardiac differentiation of hiPSCs in 3D PEG-fibrinogen hydrogels” (Auburn University, priority 2013, dated 2025)
